{
  "source": "paper PMC9654333",
  "about": "“AmyP53, a Therapeutic Peptide Candidate for the Treatment of Alzheimer’s and Parkinson’s Disease: Safety, Stability, Pharmacokinetics Parameters and Nose-to Brain Delivery” (International Journal of Molecular Sciences, 2022)",
  "key": {"[1]": {"set-up": "method as in PMID 22963731, PMID 23444784, PMID 33551991, PMID 17720549, PMID 15728733", "conditions": "therapeutic peptides delivered to the brain via the intranasal route; cited from earlier work"}, "[2]": {"tested_on": "bEnd.3 murine endothelial cells (bEnd.3/C6 co-cultures)", "assay": "Transport through in vitro reconstituted blood–brain barrier (two-compartment chamber)", "type": "in vitro ADME, mouse", "conditions": "for Transendothelial transport through the blood–brain barrier: bEnd.3/C6 model, donor basal to acceptor apical compartment", "method": "An in vitro model of the blood–brain barrier was reconstituted with bEnd.3 murine endothelial cells obtained from the American Type Culture Collection (ATCC, Manassas, VA, USA) ref. bEnd.3 [BEND3] (ATCC CRL-2299). These cells were cultured in chambers with two compartments separated by a filter with a porosity of 0.4 µm (Corning-Transwell, Dominique Dutscher, Bernolsheim, France). The cells were seeded at a density of 50,000 cells per individual filter and cultured in a growth medium containing 10% fetal calf serum. After an initial spreading step, the bEnd.3 cells colonized the entire surface available on the filter, thus reconstituting a functional endothelium. At this stage, the cells established tight junctions preventing the passage of molecules and ions. In order to improve the differentiation of bEnd.3 cells, we also set up two coculture systems: [bEnd.3 + astrocytes (CTX cells)] and [bEnd.3 + glioma (C6 cells)]. In these cases, the glial cells were seeded in the basal compartment (non-contact model) and co-cultured for 6 days before using bEnd.3 cell monolayers for transport experiments. The impermeability of each of these cellular barriers was assessed by transendothelial resistance measurements with a Voltmeter-Ohmmeter Millicell-ERS (Merck-Millipore, Burlington, MA, USA). […] All experiments were performed 6 times."}, "[3]": {"assay": "In vitro stability in rat whole blood (LC–MS)", "type": "in vitro ADME", "method": "(§1) Supernatants were stored at −20 °C before analysis.\n(§2) AmyP53 in water solution (300 µM) was mixed with rat blood (obtained from Syncrosome, Marseille, France), or commercial human serum (Sigma-Aldrich, St. Louis, MO, USA). AmyP53 concentrations were then determined by LC–MS at the indicated times after extraction, as detailed above."}, "[4]": {"assay": "Chemical stability of aqueous solution upon storage (LC–MS)", "type": "physicochemical", "conditions": "1 mM in pure water, stored 18 months at 4 °C, 20 °C and 45 °C", "method": "AmyP53 samples (1 mM in water) were stored at 4 °C, 20 °C, and 45 °C in sealed Eppendorf tubes and analyzed at different time points for chemical integrity (LC-MS method) and biological activity (binding to ganglioside GM1). For calibration, different dilutions of the standard solution were injected three times, and the peak area was measured for all three. […] The percentage of recovery was >98%, in full agreement with the certificate analysis of AmyP53 batch # #P190628-LL735654. LC–MS linearity was observed over the 5–100 pmol injected range (R^2 > 0.99). The minimal amount detected was 5 pmol."}, "[5]": {"assay": "Pharmacokinetics in rat blood and brain after intranasal or intravenous administration", "text": "(§3) Male and female Sprague Dawley rats, 6 weeks old at receipt, weighing around 300 g at the beginning of the experiments were used for pharmacokinetics studies. The animals that were included in these experiments were naïve to the previous administration of drugs. The acclimatization of rats lasted at least 5 days. Animals had free access to food (RM1, SDS Dietex) and drinking water ad libitum. […] The protocol used by Syncrosome was approved by an Animal Ethical Committee (French National Committee N°71) and by the Higher Education and Research Ministry (#2015070314429284_v2). […] Every effort was done to minimize animal suffering and to reduce the number of animals used in the experiments in compliance with the ARRIVE guidelines.\n(§4) One compound formulation at one dose for each route of administration was tested during the present study. The data were treated with the PKsolver add-in of Excel [125].\n(§5) Anesthetized (ketamine/medetomidine or isoflurane 4% for induction and then 2.5%) rats were treated intravenously once. The final volume of administration was 0.5 mL/kg (100 mg/kg body weight). As soon as the administration was performed (t0), a timer was started.\n(§6) A catheter was introduced into each nostril of the rat with a depth of 7 mm [126]. Anesthetized (ketamine/medetomidine or isoflurane 4% for induction and then 2.5%) rats were treated once. The volume of administration was 10 μL/nostril (20 μL per rat, 12 mg/kg body weight). As soon as the administration was performed (t0), a timer was started.\n(§7) Blood samples of 2 mL were collected through direct intracardiac puncture and separated on two K3-EDTA Greiner Bio-One tubes of 1 mL (ref. 454034A, Dominique Dutscher, Bernolsheim, France). A 100× solution of protease inhibitors (ref. 1862209, ThermoScientific, Waltham, MA, USA) was added immediately after sampling (10 μL/tube). The first tube of the blood sample was then separated in 2 samples with different procedures (with and without sonication) and the other one was used for plasma preparation.\n(§8) Brains were collected immediately after blood collection, split in 2 hemispheres, and then transferred into Eppendorf tubes. Brain samples were placed into crushed dry ice for several minutes and frozen at −80 °C. When indicated, the rats were transcardially perfused with a solution of phosphate-buffered saline (PBS) for 10 min with a flow rate of 40 mL/min to remove blood in the brain tissue. A subcutaneous administration of buprenorphine (0.03 mg/kg) was performed at least 30 min prior to transcardial perfusion.\n(§9) For blood and serum stability and for pharmacokinetics studies, blood and plasma samples (200 µL) were incubated with 3 volumes of methanol for 30 min at 4 °C and then centrifuged at 4 °C for 5 min (16,000× g). Supernatants were stored at −20 °C before analysis. Brain homogenates were prepared at 4 °C in PBS containing 1 mM EDTA and protease inhibitors (ref. 1862209, ThermoScientific, Waltham, MA, USA) in a glass Potter homogenizer. Homogenate samples (600 µL) were incubated with 3 volumes of methanol for 30 min at 4 °C and centrifuged at 4 °C for 5 min (16,000× g). Supernatants were evaporated under nitrogen flux and then diluted in 100 µL of 0.1% formic acid in water.\n(§10) The concentrations of intact AmyP53 in biological samples were determined by liquid chromatography–mass spectrometry (Acquity iClass-Vion LC-MS; Waters, Guyancourt, France)."}, "[6]": {"conditions": "rat, in vivo", "text": "as §3, §4, §5, §6, §7, §8, §9, §10"}, "[7]": {"conditions": "cited from earlier work"}, "[8]": {"assay": "Toxicology study, repeated intranasal administration over 7 days", "conditions": "for Behavior (Days 1–7) / Brain Histology / Inflammation at Nostrils / Body Weight (Day 7): rat; for Body Weight (Day 7): mean ± SEM, in g (unit assumed)", "experimental": "Male and female Wistar rats (4 animals per group) were treated with the indicated dose of AmyP53, and toxicology studies were conducted as previously described [75]. Statistical analysis was performed with the Kruskal–Wallis test."}, "in vivo": {"assay": "in vivo", "conditions": "both, Sprague Dawley, rat, 12 mg/kg", "text": "as §3, §4, §5, §6, §7, §8, §9, §10"}, "[9]": {"assay": "In vitro stability in commercial human serum (LC–MS)", "type": "in vitro ADME", "method": "as §1, §2"}},
  "note": "Where “and” joins values, the source holds several entries; their conditions need not be identical. Identical values can stand only once. Entries after “also recorded” stand apart in the source; their conditions may differ. Like-named read-outs stand apart in the source and are kept apart here. Ends that are not written are not given here.",
  "data": [
    {"substance": "Vasopressin [reference compound]", "values": [
      {"measurement": "pHi", "setting": "[1]", "result": 8.0}
    ]},
    {"substance": "NGF: therapeutic peptide delivered to the brain via the intranasal route, 120 aa", "values": [
      {"measurement": "pHi", "setting": "[1]", "result": 9.0}
    ]},
    {"substance": "RGGRLAYLRRRWAVLGR [synB5, reference compound]", "values": [
      {"measurement": "Transendothelial transport through the blood–brain barrier", "setting": "[2]", "result": "efficiently crossed the blood–brain barrier"}
    ]},
    {"substance": "RRLSYSRRRF [synB3, reference compound]", "values": [
      {"measurement": "Transendothelial transport through the blood–brain barrier", "setting": "[2]", "result": "efficiently crossed the blood–brain barrier"}
    ]},
    {"substance": "VIP: therapeutic peptide delivered to the brain via the intranasal route, 28 aa [reference compound]", "values": [
      {"measurement": "pHi", "setting": "[1]", "result": 9.8}
    ]},
    {"substance": "EPO: therapeutic peptide delivered to the brain via the intranasal route, 165 aa", "values": [
      {"measurement": "pHi", "setting": "[1]", "result": 8.7}
    ]},
    {"substance": "KEGVLYVGHHTK [AmyP53]", "values": [
      {"measurement": "Transendothelial transport through the blood–brain barrier", "setting": "[2]", "result": "almost as effective as synB3 and more than synB5; also recorded: at least as efficiently as syn B3 and even more than syn B5"},
      {"measurement": "Transendothelial resistance during incubation", "setting": "[2]; reconstituted blood–brain barrier, incubation with AmyP53", "result": "remained unchanged"},
      {"measurement": "half-life at 300 µM", "setting": "[3]; rat fresh whole blood, read-out: Half-life time", "result": 17, "unit": "min"},
      {"measurement": "Detection after incubation", "setting": "[3]; rat whole blood, 300 µM, 60 min", "result": "still detected after 60 min"},
      {"measurement": "Chemical stability in water solution", "setting": "[4]", "result": "remains chemically intact over 18 months; also recorded: remained remarkably stable under all these conditions"},
      {"measurement": "solubility", "setting": "physchem", "result": "> 146000 µM and > 200000 µg/mL"},
      {"measurement": "Ratio of AUCIN/AUCiv", "setting": "[5]; blood", "result": 123, "unit": "%"},
      {"measurement": "Ratio of AUCIN/AUCiv", "setting": "[5]; brain", "result": 94, "unit": "%"},
      {"measurement": "Tmax", "setting": "[6]; both, Sprague Dawley, 12 mg/kg", "result": 5, "unit": "min"},
      {"measurement": "AmyP53 reaching the brain", "setting": "[6]", "result": 1.57, "unit": "%"},
      {"measurement": "Efficiency of nose-to-brain delivery versus blood circulation", "setting": "[6]", "result": 7.85, "unit": "fold"},
      {"measurement": "Inflammatory reaction in the nostrils and the tails", "setting": "[7]; AmyP53-treated rats", "result": "no inflammatory reaction could be observed"},
      {"measurement": "Tolerance", "setting": "[7]; rats, administered intravenously or intranasally", "result": "perfect tolerance"},
      {"measurement": "Undesirable effects", "setting": "[7]; rats, intranasal administration, doses up to 5 mg/kg body weight", "result": "no undesirable effect could be detected"},
      {"measurement": "Undesirable effects", "setting": "[7]; rats, intravenous administration, doses up to 80 mg/kg", "result": "no undesirable effect could be detected"},
      {"measurement": "Toxicology findings after repeated intranasal injections", "setting": "[8]; male and female Wistar rats, doses up to 5 mg/kg body weight, 7-day period", "result": "no mortality, no behavioral changes, no body weight loss, and no alterations of brain tissue at autopsy"},
      {"measurement": "Behavior (Days 1–7)", "setting": "[8]; female, intranasal 0.2 mg/kg", "result": "NTR NTR"},
      {"measurement": "Brain Histology", "setting": "[8]; female, intranasal 0.2 mg/kg", "result": "NTR NTR"},
      {"measurement": "Inflammation at Nostrils", "setting": "[8]; female, intranasal 0.2 mg/kg every two days during 7 days", "result": "No No"},
      {"measurement": "Body Weight (Day 7)", "setting": "[8]; female, intranasal 0.2 mg/kg", "result": "189.46 ± 15.15"},
      {"measurement": "Behavior (Days 1–7)", "setting": "[8]; female, intranasal 1.0 mg/kg", "result": "NTR NTR"},
      {"measurement": "Brain Histology", "setting": "[8]; female, intranasal 1.0 mg/kg", "result": "NTR NTR"},
      {"measurement": "Inflammation at Nostrils", "setting": "[8]; female, intranasal 1.0 mg/kg every two days during 7 days", "result": "No No"},
      {"measurement": "Body Weight (Day 7)", "setting": "[8]; female, intranasal 1.0 mg/kg", "result": "191.03 ± 3.13"},
      {"measurement": "Behavior (Days 1–7)", "setting": "[8]; female, intranasal 5.0 mg/kg", "result": "NTR NTR"},
      {"measurement": "Brain Histology", "setting": "[8]; female, intranasal 5.0 mg/kg", "result": "NTR NTR"},
      {"measurement": "Inflammation at Nostrils", "setting": "[8]; female, intranasal 5.0 mg/kg every two days during 7 days", "result": "No No"},
      {"measurement": "Body Weight (Day 7)", "setting": "[8]; female, intranasal 5.0 mg/kg", "result": "185.70 ± 5.77"},
      {"measurement": "Behavior (Days 1–7)", "setting": "[8]; male, intranasal 0.2 mg/kg", "result": "NTR NTR"},
      {"measurement": "Brain Histology", "setting": "[8]; male, intranasal 0.2 mg/kg", "result": "NTR NTR"},
      {"measurement": "Inflammation at Nostrils", "setting": "[8]; male, intranasal 0.2 mg/kg every two days during 7 days", "result": "No No"},
      {"measurement": "Body Weight (Day 7)", "setting": "[8]; male, intranasal 0.2 mg/kg", "result": "248.94 ± 8.51"},
      {"measurement": "Behavior (Days 1–7)", "setting": "[8]; male, intranasal 1.0 mg/kg", "result": "NTR NTR"},
      {"measurement": "Brain Histology", "setting": "[8]; male, intranasal 1.0 mg/kg", "result": "NTR NTR"},
      {"measurement": "Inflammation at Nostrils", "setting": "[8]; male, intranasal 1.0 mg/kg every two days during 7 days", "result": "No No"},
      {"measurement": "Body Weight (Day 7)", "setting": "[8]; male, intranasal 1.0 mg/kg", "result": "252.26 ± 5.77"},
      {"measurement": "Behavior (Days 1–7)", "setting": "[8]; male, intranasal 5.0 mg/kg", "result": "NTR NTR"},
      {"measurement": "Brain Histology", "setting": "[8]; male, intranasal 5.0 mg/kg", "result": "NTR NTR"},
      {"measurement": "Inflammation at Nostrils", "setting": "[8]; male, intranasal 5.0 mg/kg every two days during 7 days", "result": "No No"},
      {"measurement": "Body Weight (Day 7)", "setting": "[8]; male, intranasal 5.0 mg/kg", "result": "250.90 ± 5.68"},
      {"measurement": "Tmax", "setting": "in vivo", "result": 10, "unit": "min"},
      {"measurement": "half-life at 300 µM", "setting": "[9]; commercial human serum, read-out: Half-life time", "result": 5, "unit": "min"},
      {"measurement": "Detection after incubation", "setting": "[9]; human serum, 300 µM, 30 min", "result": "no longer detected in serum after 30 min"}
    ]},
    {"substance": "TGF-β: therapeutic peptide delivered to the brain via the intranasal route, 112 aa", "values": [
      {"measurement": "pHi", "setting": "[1]", "result": 8.6}
    ]}
  ]
}
